The source made the active and inactive calls. How the calls were made is not given here.
System: rodent carcinogenicity bioassays, tumor incidence
Experiment: CCRIS carcinogenicity studies
Procedure, shortened: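 NCI-built, expert-reviewed records of carcinogenicity and related test outcomes (mutagenicity, tumor promotion/inhibition) compiled from published and report sources, historical span 1985-2011, not updated.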

O=[N+]([O-])c1ccc2ccc3cccc4ccc1c2c34
carcinogen call (Species: HAMSTER, Strain/Sex: SYRIAN/MALE, Route: INTRATRACHEAL, Dose: 0, 1, 2 MG ADSORBED ONTO CARBON CARRIER PARTICLES IN 0.2 ML SALINE 1/WK FOR 92 WK (STUDY DURATION: 92 WK), Dose: 0, 1, 2 MG ADSORBED ONTO CARBON CARRIER PARTICLES IN 0.2 ML SALINE 1/WK FOR 92 WK (STUDY DURATION: 92 WK)): inactive; negative
carcinogen call (Species: HAMSTER, Strain/Sex: SYRIAN/MALE, Route: INTRATRACHEAL, Dose: 0, 1, 2 MG ADSORBED ONTO CARBON CARRIER PARTICLES IN 0.2 ML SALINE 2/WK FOR 92 WK (STUDY DURATION: 92 WK), Dose: 0, 1, 2 MG ADSORBED ONTO CARBON CARRIER PARTICLES IN 0.2 ML SALINE 2/WK FOR 92 WK (STUDY DURATION: 92 WK)): inactive; negative
carcinogen call (Species: MOUSE, Strain/Sex: B6C3F1/FEMALE, Route: INTRAPERITONEAL, Dose: 0, 7 NMOL (TOTAL DOSE), 1/7, 2/7 AND 4/7 OF THE TOTAL DOSE ADMINISTERED WITHIN 24 HR OF BIRTH AND AT 8 AND 15 D OF AGE): inactive; negative
carcinogen call (Species: MOUSE, Strain/Sex: B6C3F1/MALE, Route: INTRAPERITONEAL, Dose: 0, 7 NMOL (TOTAL DOSE), 1/7, 2/7 AND 4/7 OF THE TOTAL DOSE ADMINISTERED WITHIN 24 HR OF BIRTH AND AT 8 AND 15 D OF AGE): inactive; negative
carcinogen call (Species: MOUSE, Strain/Sex: BALB/MALE, Route: SUBCUTANEOUS, Dose: 0, 0.1 MG IN DMSO 1/WK FOR 20 WK (STUDY DURATION: 60 WK)): inactive; negative
carcinogen call (Species: MOUSE, Strain/Sex: ICR/FEMALE, Route: INTRAPERITONEAL, Dose: 0, 21 UG TOTAL DOSE (3 UG/5 µL, 6 UG/10 µL, 12 UG/20 µL DMSO ON DAYS 1,8 AND 15), 105 UG TOTAL DOSE (15 UG/5 µL, 30 UG/1, Dose: 0, 21 UG TOTAL DOSE (3 UG/5 µL, 6 UG/10 µL, 12 UG/20 µL DMSO ON DAYS 1,8 AND 15), 105 UG TOTAL DOSE (15 UG/5 µL, 30 UG/1): inactive; negative
carcinogen call (Species: MOUSE, Strain/Sex: ICR/MALE, Route: INTRAPERITONEAL, Dose: 0, 21 UG TOTAL DOSE (3 UG/5 µL, 6 UG/10 µL, 12 UG/20 µL DMSO ON DAYS 1,8 AND 15), 105 UG TOTAL DOSE (15 UG/5 µL, 30 UG/1, Dose: 0, 21 UG TOTAL DOSE (3 UG/5 µL, 6 UG/10 µL, 12 UG/20 µL DMSO ON DAYS 1,8 AND 15), 105 UG TOTAL DOSE (15 UG/5 µL, 30 UG/1): inactive; negative
carcinogen call (Species: MOUSE, Strain/Sex: STRAIN-A/FEMALE, Route: INTRAPERITONEAL, Dose: 0, 0.71, 2.14, 6.44 MMOL/KG IN 0.1 ML TRIOCTANOIN TOTAL DOSE ADMINISTERED AS 3 INJECTIONS/WK FOR 17 INJECTIONS (STUDY DU, Dose: 0, 0.71, 2.14, 6.44 MMOL/KG IN 0.1 ML TRIOCTANOIN TOTAL DOSE ADMINISTERED AS 3 INJECTIONS/WK FOR 17 INJECTIONS (STUDY DU, Tumor Site: Type of Lesion: LUNG: ADENOMA): active; positive
carcinogen call (Species: MOUSE, Strain/Sex: STRAIN-A/MALE, Route: INTRAPERITONEAL, Dose: 0, 0.71, 2.14, 6.44 MMOL/KG IN 0.1 ML TRIOCTANOIN TOTAL DOSE ADMINISTERED AS 3 INJECTIONS/WK FOR 17 INJECTIONS (STUDY DU, Dose: 0, 0.71, 2.14, 6.44 MMOL/KG IN 0.1 ML TRIOCTANOIN TOTAL DOSE ADMINISTERED AS 3 INJECTIONS/WK FOR 17 INJECTIONS (STUDY DU, Tumor Site: Type of Lesion: LUNG: ADENOMA): active; positive
carcinogen call (Species: RAT, Strain/Sex: F344/DUCRJ FISCHER/MALE, Route: SUBCUTANEOUS, Dose: 2 MG TWICE WEEKLY FOR 10 WK (STUDY DURATION: 52 WK), Tumor Site: Type of Lesion: INTEGUMENTARY SYSTEM: FIBROUS HISTIOCYTOMAS): active; positive
carcinogen call (Species: RAT, Strain/Sex: F344/FEMALE, Route: SUBCUTANEOUS, Dose: 0, 40 UMOL (TOTAL DOSE) ADMINISTERED OVER 8 WK BEGINNING WITHIN 24 HR OF BIRTH (STUDY DURATION: 86 WK), Tumor Site: Type of Lesion: HEMATOPOIETIC SYSTEM: LEUKEMIA): active; positive
carcinogen call (Species: RAT, Strain/Sex: F344/MALE, Route: SUBCUTANEOUS, Dose: 0, 0.2, 2 MG 2/WK FOR 10 WK (STUDY DURATION: 650 D), Dose: 0, 0.2, 2 MG 2/WK FOR 10 WK (STUDY DURATION: 650 D)): inactive; negative
carcinogen call (Species: RAT, Strain/Sex: F344/MALE, Route: SUBCUTANEOUS, Dose: 2 MG IN DMSO 2/WK FOR 10 WK, Tumor Site: Type of Lesion: INJECTION SITE: MALIGNANT FIBROUS HISTIOCYTOMA): active; positive
carcinogen call (Species: RAT, Strain/Sex: SPRAGUE-DAWLEY/FEMALE, Route: SUBCUTANEOUS, Dose: 0, 50, 100 UMOL/KG IN DMSO 1/WK FOR 8 WK (STUDY DURATION: 62 WK), Dose: 0, 50, 100 UMOL/KG IN DMSO 1/WK FOR 8 WK (STUDY DURATION: 62 WK), Tumor Site: Type of Lesion: INJECTION SITE: MALIGNANT FIBROUS HISTIOCYTOMA, MAMMARY GLAND: FIBROADENOMA, ADENOCARCINOMA): active; positive
carcinogen call (Species: RAT, Strain/Sex: SPRAGUE-DAWLEY/MALE, Route: SUBCUTANEOUS, Dose: 0, 50, 100 UMOL/KG IN DMSO 1/WK FOR 8 WK (STUDY DURATION: 62 WK), Dose: 0, 50, 100 UMOL/KG IN DMSO 1/WK FOR 8 WK (STUDY DURATION: 62 WK), Tumor Site: Type of Lesion: INJECTION SITE: MALIGNANT FIBROUS HISTIOCYTOMA): active; positive
carcinogen call (Species: RAT, Strain/Sex: STRAIN CD/FEMALE, Route: INTRAGASTRIC, Dose: 0, 10 UMOL IN DMSO 3/WK FOR 4 WK (TOTAL DOSE: 16 UMOL/RAT) (STUDY DURATION: 78 WK)): inactive; negative
carcinogen call (Species: RAT, Strain/Sex: STRAIN CD/FEMALE, Route: INTRAPERITONEAL, Dose: 0, 10 UMOL IN DMSO 3/WK FOR 4 WK (TOTAL DOSE: 16 UMOL/RAT) (STUDY DURATION: 78 WK), Tumor Site: Type of Lesion: MAMMARY GLAND: ADENOCARCINOMA, FIBROADENOMA): active; positive
carcinogen call (Species: RAT, Strain/Sex: STRAIN CD/FEMALE, Route: INTRAPERITONEAL, Dose: 0, 10 UMOL IN DMSO 3/WK FOR 4 WK (TOTAL DOSE: 16 UMOL/RAT) (STUDY DURATION: 78 WK), Tumor Site: Type of Lesion: PITUITARY GLAND: CARCINOMA): active; positive
carcinogen call (Species: RAT, Strain/Sex: STRAIN-CD/FEMALE, Route: GAVAGE, Dose: 0, 50 UMOL IN 0.5 ML TRIOCTANOIN 1/WK FOR 8 WK (STUDY DURATION: 49 WK), Tumor Site: Type of Lesion: MAMMARY GLAND: FIBROADENOMA): active; positive
carcinogen call (Species: RAT, Strain/Sex: STRAIN-CD/FEMALE, Route: INJECTION, Dose: 0, 0.1 ML OF 20.3 UMOL/ML DMSO INJECTED INTO MAMMARY TISSUE OF THE 3 LEFT THORACIC NIPPLES FOLLOWED THE NEXT D BY SIMILA): inactive; negative
carcinogen call (Species: RAT, Strain/Sex: STRAIN-CD/FEMALE, Route: INJECTION, Dose: 0, 0.1 ML OF A 20.3 UMOL/ML SOLUTION IN DMSO INJECTED INTO MAMMARY TISSUE UNDERLYING 3 LEFT THORACIC NIPPLES THE FOLLOWI): inactive; negative
carcinogen call (Species: RAT, Strain/Sex: STRAIN-CD/FEMALE, Route: INTRAPERITONEAL, Dose: 0, 67 UMOL/KG BW IN DMSO 3/WK FOR 4 WK (STUDY DURATION: 61 WK)): inactive; negative
carcinogen call (Species: RAT, Strain/Sex: STRAIN-CD/FEMALE, Route: INTRAPERITONEAL, Dose: 0, 67 UMOL/KG/BW IN 25 UMOL/ML DMSO 3/WK FOR 4 WK (TOTAL DOSE: 0; 119 UMOL) ADMINISTERED TO WEANLING RATS (STUDY DURATIO, Dose: 0, 67 UMOL/KG/BW IN 25 UMOL/ML DMSO 3/WK FOR 4 WK (TOTAL DOSE: 0; 119 UMOL) ADMINISTERED TO WEANLING RATS (STUDY DURATIO): inactive; negative
carcinogen call (Species: RAT, Strain/Sex: STRAIN-CD/FEMALE, Route: INTRAPERITONEAL, Dose: 0, 100 UMOL/KG BW IN DMSO 1/WK FOR 4 WK (STUDY DURATION: 90 WK), Tumor Site: Type of Lesion: MAMMARY GLAND: ADENOCARCINOMA): active; positive
carcinogen call (Species: RAT, Strain/Sex: STRAIN-CD/FEMALE, Route: INTRAPERITONEAL, Dose: 0, 100 UMOL/KG/BW IN 70 UMOL/ML DMSO 1/WK FOR 4 WK (TOTAL DOSE: 0; 77.3 UMOL) ADMINISTERED TO WEANLING RATS (STUDY DURAT, Dose: 0, 100 UMOL/KG/BW IN 70 UMOL/ML DMSO 1/WK FOR 4 WK (TOTAL DOSE: 0; 77.3 UMOL) ADMINISTERED TO WEANLING RATS (STUDY DURAT, Tumor Site: Type of Lesion: MAMMARY GLAND: ADENOCARCINOMA): active; positive
carcinogen call (Species: RAT, Strain/Sex: STRAIN-CD/FEMALE, Route: SUBCUTANEOUS, Dose: 0, 6.3 UMOL (TOTAL DOSE) ADMINISTERED OVER 8 WK BEGINNING ON DAY OF BIRTH (STUDY DURATION: 67 WK), Tumor Site: Type of Lesion: MAMMARY GLAND: TUMOR): active; positive
carcinogen call (Species: RAT, Strain/Sex: STRAIN-CD/FEMALE, Route: SUBCUTANEOUS, Dose: 0, 63 UMOL (TOTAL DOSE) ADMINISTERED OVER 8 WK BEGINNING WITHIN 24 HR OF BIRTH (STUDY DURATION: 86 WK), Tumor Site: Type of Lesion: MAMMARY GLAND: TUMOR): active; positive
carcinogen call (Species: RAT, Strain/Sex: STRAIN-CD/FEMALE, Route: SUBCUTANEOUS, Dose: 0, 100 UMOL/KG BW IN DMSO 1/WK FOR 4 WK (STUDY DURATION: 90 WK), Tumor Site: Type of Lesion: MAMMARY GLAND: FIBROADENOMA): active; positive
carcinogen call (Species: RAT, Strain/Sex: STRAIN-CD/FEMALE, Route: SUBCUTANEOUS, Dose: 0, 100 UMOL/KG/BW IN 70 UMOL/ML DMSO 1/WK FOR 4 WK (TOTAL DOSE: 0; 74.3 UMOL) ADMINISTERED TO WEANLING RATS (STUDY DURAT, Dose: 0, 100 UMOL/KG/BW IN 70 UMOL/ML DMSO 1/WK FOR 4 WK (TOTAL DOSE: 0; 74.3 UMOL) ADMINISTERED TO WEANLING RATS (STUDY DURAT, Tumor Site: Type of Lesion: MAMMARY GLAND: FIBROADENOMA): active; positive
carcinogen call (Species: RAT, Strain/Sex: STRAIN-CD/FEMALE, Route: SUBCUTANEOUS, Dose: 50, 100 UMOL/KG IN DMSO 1/WK FOR 8 WK, Tumor Site: Type of Lesion: INJECTION SITE: FIBROSARCOMA, MAMMARY GLAND: ADENOCARCINOMA): active; positive
carcinogen call (Species: RAT, Strain/Sex: STRAIN-CD/MALE, Route: SUBCUTANEOUS, Dose: 50, 100 UMOL/KG IN DMSO 1/WK FOR 8 WK, Tumor Site: Type of Lesion: INJECTION SITE: FIBROSARCOMA): active; positive

Source: PubChem BioAssay AID1259411 (Chemical Carcinogenesis Research Information System (CCRIS), 2018)
